# Like-named read-outs stand apart in the source and are kept apart here.
# What was measured:
# [1] = tested on: Namalwa (Lymphoma) cell line; assay: Proliferation of Namalwa; type: cell-based; details: for IC50: read-out: IC50 in μM Namalwa (Lymphoma); for ratio of (IC50 of K01)/(IC50 of compound), Namalwa: value in parenthesis
# Protocol: (§1) The diterpenoid compounds were tested in A549, a non-small cell lung cancer cell line harboring a K-Ras activating mutation. Briefly, A549 cells at a density of 1,000 cells/well were seeded in 96-well plates and incubated at 37° C. for 24 hours. A series of different concentrations of compound stocks (500×) were prepared by 3-fold serial dilution in DMSO. These compounds were further diluted in culture media and then added to cells so that the final DMSO concentration was not exceeding 0.25%. After 96 hours of incubation, 50 μL of CellTiter Glo reagent (Promega) was added to each well and luminescence was measured after 10 minutes using EnVision (PerkinElmer). Luminescence from cells treated with DMSO alone was set as Max and % of inhibition was calculated as follows: Inhibition %=(Max−Sample value)/Max×100. Data was analyzed using XL-fit software (ID Business Solutions Ltd.) and IC50, relative IC50, and % of top inhibition was calculated. Some of the compounds in this disclosure were very potent in blocking proliferation of A549 lung cancer cells at low nM range. In addition, potency of inhibiting A549 proliferation correlated well with its binding affinity to PKCs for this series of compounds. In other words, higher affinity binders had stronger inhibitory effects on A549 proliferation. This further support the notion that activation, rather than inhibition, of certain PKC isoforms is required to block proliferation of cancer cells, some of which may harbor K-Ras mutations. This is in sharp contrast to previous literature and common belief that inhibition of PKC is necessary to block cancer cell growth (Kang, 2014, New Journal of Science, 2014:1-36). Data presented here is in agreement with recent findings that many loss-of-function but not gain-of-function mutations of PKC isoforms have been identified in many human cancers (Antal et al., 2015, Cell, 160:489-502).
# (§2) The compounds in this disclosure were tested for their potency in blocking proliferation of a few other cancer cells lines, including K-Ras mutant pancreatic cell lines Panc2.13 and KP-4, leukemia cell line HL-60, and lymphoma cell lines Namalwa and Mino. Similar procedures as in Example 67 were followed. Initial cell numbers seeded in 96-well plates were different for different cell lines: 3000 cells/well for Panc2.13; 800-1000 cells/well for KP-4; 5000 cells/well for HL-60; 5000-10000 cells/well for Namalwa and Mino. A ratio ratio of (IC50 of K01)/(IC50 of compound) (data in parenthesis in Table 5) was used to normalize the compound potency from different assay batches to a common comparator […].
# PANC1 cells = assay: Sphere formation assay (cancer stemness); type: cell-based; details: Homo sapiens, PANC-1, read-out: concentration exhibiting at least 50% inhibition on the sphere forming efficiency
# Protocol: A group of diterpenoid compounds of the present disclosure were tested to assess their effects on blocking formation of spheres from cancer cell lines such as PANC1, a K-Ras mutant pancreatic cell line. Briefly, PANC1 cells were harvested, re-suspended as single cell suspensions, counted and seeded into Ultra Low Attachment Culture 96-well plate (Corning, Cat #3474) at 100 cells/well in 100 μl of complete media (with 10% FBS) containing 2% Matrigel (Corning, Cat #354234) and DMSO or compounds. Six replicates per condition were seeded. The seeded cells were placed in the 37° C. tissue culture incubator. 10 μl of low serum containing media (with 0.1% FBS) was added to each well every week. Spheres formed after 3-4 weeks were counted. Sphere forming efficiency was expressed as percentage of # of spheres/# of cells seeded.
# [2] = tested on: KP-4 (Pancreatic) cell line; assay: Proliferation of KP-4; type: cell-based
# Protocol: as §1, §2
# [3] = tested on: A549 non-small cell lung cancer cell line; assay: Proliferation of A549 (CellTiter Glo); type: cell-based; details: Homo sapiens, read-out: IC50 μM (A549 Cell Line)
# How it was run: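 Luminescent CellTiter Glo read-out after 96 h compound exposure of A549 cells plated at 1,000/well and rested 24 h at 37° C; DMSO kept ≤0.25%, dilutions 3-fold. Inhibition taken relative to DMSO-treated wells; IC50, relative IC50 and top inhibition derived by curve fitting.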
# [4] = tested on: Mino (Lymphoma) cell line; assay: Proliferation of Mino; type: cell-based
# Protocol: as §1, §2
# [5] = tested on: Panc2.13 (Pancreatic) cell line; assay: Proliferation of Panc2.13; type: cell-based; details: for IC50: read-out: IC50 in μM Panc2.13 (Pancreatic); for ratio of (IC50 of K01)/(IC50 of compound), Panc2.13: value in parenthesis
# Protocol: as §1, §2
# [6] = tested on: HL-60 (Leukemia) cell line; assay: Proliferation of HL-60; type: cell-based
# Protocol: as §1, §2
# [7] = tested on: phosphorylation of CaMKii at T286 in Panc1 cells; assay: CaMKii phosphorylation in Panc1 cell line (Western blot); type: cell-based; details: 0.2 μM and 1 μM, 48 hours (FIG. 5)
# Protocol: Panc1 (a pancreatic cancer cell line) cells (˜5-8 millions) were seeded in 10 cm dishes (or ˜2 millions in 6 cm dishes) and treated next day with prostratin (K-101, 0.2 μM and 1 μM) or 0.02 μM and […] of K101-C1347, -C134801, and -C134802 for 48 hours. Cells were then collected/lysed for Western blot analysis. Protein quantification, SDS-PAGE, and Western blot procedures were performed as described in Example 65, except that a different lysis buffer (1 ml of 10×TNE [20 mL 1M Tris pH7.5; 30 mL 5M NaCl; 2 mL 0.5M EDTA; 48 mL d2H2O], 1 ml of 10% NP40, 7.7 mL of dH2O, 100 μL of 10× Protease inhibitors, 100 μL of 10× Phosphatase inhibitors, and 10 μl DTT) was used. To assess the effect of diterpenoid compounds on CaMKii phosphorylation, a phospho-specific antibody P-CaMKii (T286) (Abcam, cat #32678) was used for detection. Phosphorylation of CaMKii at T286 is a marker for activation of CaMKii kinase in the Wnt/Ca^2+ signaling pathway when […] and thus a downstream marker for inhibition of K-Ras stemness (Wang et al., Cell. 2015, 163(5):1237-51).
# C1b domain of human PKCε = biological target: T1, C1b domain of human PKCε (Homo sapiens, UniProt Q02156); assay: Competitive 3H-PDBu binding to C1b domain of PKCε
# T1 construct: Genes encoding C1b domains of human PKCα, δ, ε, θ, and PKD1 (PKCμ) were synthesized; made in house; host or cells: E. coli BL21(DE3)
# T1 sequence (Q02156 242-292 limits assumed): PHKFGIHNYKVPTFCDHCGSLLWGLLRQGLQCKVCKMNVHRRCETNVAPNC
# How it was run: (§3)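 Ki derived by Cheng-Prusoff from IC50, with each protein batch's measured ^3H-PDBu Kd. Displacement of ^3H-PDBu from E. coli-produced GST-fused C1b domains or full-length human PKC was run 10 min at 37°C plus 20 min on ice, with filter capture and scintillation counting.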
# C1b domain of human PKCθ = biological target: T2, C1b domain of human PKCθ (Homo sapiens, UniProt Q04759); assay: Competitive 3H-PDBu binding to C1b domain of PKCθ
# T2 construct: Genes encoding C1b domains of human PKCα, δ, ε, θ, and PKD1 (PKCμ) were synthesized; made in house; host or cells: E. coli BL21(DE3)
# T2 sequence (Q04759 231-281 limits assumed): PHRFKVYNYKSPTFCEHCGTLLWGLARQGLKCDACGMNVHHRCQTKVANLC
# How it was run: as §3
# C1b domain of human PKCδ = biological target: T3, C1b domain of human PKCδ (Homo sapiens, UniProt Q05655); assay: Competitive 3H-PDBu binding to C1b domain of PKCδ; details: Ki PKCδ, 3H-PDBu competition
# T3 construct: Genes encoding C1b domains of human PKCα, δ, ε, θ, and PKD1 (PKCμ) were synthesized; made in house; host or cells: E. coli BL21(DE3)
# T3 sequence (Q05655 230-280 limits assumed): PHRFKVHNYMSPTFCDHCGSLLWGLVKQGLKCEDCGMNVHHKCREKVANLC
# How it was run: as §3
# [8] = tested on: phosphorylation of PKCμ, PKCδ and Erk1/2 in A549 lung cancer cells; type: cell-based; details: 0.3 μM, 30 minutes, Western blot (FIG. 1)
# Protocol: Cells were then treated with different drugs at indicated concentrations for 30 minutes. […] Imagequant LAS4000 (GE) was used to scan membranes if secondary antibodies anti-mouse IgG HRP conjugate or anti-rabbit IgG HRP conjugate (dilutions from 1:2000-1:10000) were used. For ProteinSimple Wes system, manufacture's procedure was followed (ProteinSimple 12-230 kDa Wes Separation Module) for sample preparation, loading, running, and data analysis.
# Phosphorylation of these sites has been linked to acute activation or catalytic activity of the PKC isoforms and Erk1/2. High level of phosphorylation indicates strong activation.
# C1b domain of human PKCα = biological target: T4, C1b domain of human PKCα (Homo sapiens, UniProt P17252); assay: biochemical; type: binding; details: 3H-PDBu competition; for Ki: Ki PKCα
# T4 construct: Genes encoding C1b domains of human PKCα, δ, ε, θ, and PKD1 (PKCμ) were synthesized; made in house; host or cells: E. coli BL21(DE3)
# How it was run: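 Competitive binding against 3H-PDBu tracer used recombinant GST-C1b fusion protein expressed in E. coli. Incubation ran 10 min at 37°C with shaking, then 20 min on ice, followed by filtration and scintillation counting of trapped 3H-PDBu. Affinity was derived using each protein preparation's experimentally determined Kd for 3H-PDBu.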
# [9] = biological target: T5, C1b domain of human PKD1 (PKCμ) (Homo sapiens, UniProt Q15139); assay: biochemical; type: binding
# T5 construct: Genes encoding C1b domains of human PKCα, δ, ε, θ, and PKD1 (PKCμ) were synthesized; made in house; host or cells: E. coli BL21(DE3)
# T5 sequence (Q15139 270-320 limits assumed): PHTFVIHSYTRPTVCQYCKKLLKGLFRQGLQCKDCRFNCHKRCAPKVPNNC
# How it was run: as §3
# [10] = Homo sapiens, KP-4, read-out: IC50 in μM KP-4 (Pancreatic)
# [11] = Homo sapiens, MINO, read-out: IC50 in μM Mino (Lymphoma)
# [12] = Homo sapiens, HL-60, read-out: IC50 in μM HL-60 (Leukemia)
SMILES,IC50 [1] [µM],IC50 [5] [µM],Ki (C1b domain of human PKCε) [nM],"ratio of (IC50 of K01)/(IC50 of compound), Namalwa [1]",Ki (C1b domain of human PKCθ) [nM],IC50 (PANC1 cells) [nM],Ki (C1b domain of human PKCδ) [nM],"phosphorylation of PKC (PKD/PKCμ), PKCδ and Erk1/2 [8]",Ki (C1b domain of human PKCα) [nM],"IC50 [2, 10] [µM]","IC50 ([3]; A549, 96 h) [µM]",Ki [9] [nM],"IC50 [4, 11] [µM]","ratio of (IC50 of K01)/(IC50 of compound), Mino ([4]; Mino; value in parenthesis)","ratio of (IC50 of K01)/(IC50 of compound), Panc2.13 [5]","ratio of (IC50 of K01)/(IC50 of compound), HL-60 ([6]; HL-60; value in parenthesis)","IC50 [6, 12] [µM]",further results
"CC(=O)O[C@@]12C[C@@H](C)[C@@]3(O)[C@@H](C=C(CO)C[C@]4(O)C(=O)C(C)=C[C@@H]34)[C@@H]1C2(C)C [Compound K101, prostratin, reference compound]",0.06 to 0.1,0.6 to 1,,,,,,,,,,,,,,,,"IC50 (PANC1 cells; PANC1 single cell suspension, spheres counted after 3-4 weeks): ≤ 500 nM; IC50 ([2]; Homo sapiens, KP-4; read-out: IC50 in μM KP-4 (Pancreatic)): 0.2 to 0.6 µM; IC50 ([3]; A549, 96 hours incubation, CellTiter Glo): 0.03 to 0.06 µM; IC50 ([4]; Homo sapiens, MINO; read-out: IC50 in μM Mino (Lymphoma)): 0.06 to 0.1 µM; IC50 ([6]; Homo sapiens, HL-60; read-out: IC50 in μM HL-60 (Leukemia)): 0.2 to 0.6 µM; phosphorylation of CaMKii at T286 [7]: induced phosphorylation of CaMKii at T286"
CC1=C[C@H]2[C@@]3(O)[C@H](C)C[C@]4(OC(=O)[C@@H](N)C5Cc6ccccc6C5)[C@H]([C@@H]3C=C(CO)C[C@]2(O)C1=O)C4(C)C [Compound K101-C1329],0.03 to 0.06,0.1 to 0.2,1 to 30,1.6,5 to 10,≤ 150,< 5,induced high levels of phosphorylation,30 to 60,0.06 to 0.1,0.06 to 0.1,< 5,0.01 to 0.03,5.5,5.82,1.79,0.03 to 0.06,
CC1=C[C@H]2[C@@]3(O)[C@H](C)C[C@]4(OC(=O)[C@@H](N)CCCc5ccccc5)[C@H]([C@@H]3C=C(CO)C[C@]2(O)C1=O)C4(C)C [Compound K101-C1319],0.03 to 0.06,0.2 to 0.6,30 to 60,1.53,5 to 10,≤ 1500,< 5,induced high levels of phosphorylation,,0.1 to 0.2,0.06 to 0.1,< 5,0.01 to 0.03,6,3.65,1.79,0.03 to 0.06,Ki PKCα (C1b domain of human PKCα): E (E=>60 nM and ≤10 nM)
CC1=C[C@H]2[C@@]3(O)[C@H](C)C[C@]4(OC(=O)[C@@H](N)C(C)(C)C)[C@H]([C@@H]3C=C(CO)C[C@]2(O)C1=O)C4(C)C [Compound K101-C1346],,,,,30 to 60,≤ 1500,1 to 30,,200 to 400,,0.2 to 0.6,5 to 10,,,,,,
CC1=C[C@H]2[C@@]3(O)[C@H](C)C[C@]4(OC(=O)C(C)(C)C)[C@H]([C@@H]3C=C(CO)C[C@]2(O)C1=O)C4(C)C [Compound K101-C1308],0.03 to 0.06,0.1 to 0.2,1 to 30,1.38,30 to 60,≤ 150,1 to 30,,800 to 1000,0.1 to 0.2,0.06 to 0.1,5 to 10,0.01 to 0.03,6.82,6.29,5.29,0.06 to 0.1,
CC1=C[C@H]2[C@@]3(O)[C@H](C)C[C@]4(OC(=O)[C@@H](N)CCC5CCCCC5)[C@H]([C@@H]3C=C(CO)C[C@]2(O)C1=O)C4(C)C [Compound K101-C1345],0.001 to 0.01,0.03 to 0.06,1 to 30,7.42,1 to 30,≤ 150,< 5,,30 to 60,0.01 to 0.03,0.01 to 0.03,< 5,0.001 to 0.01,33,20.5,27.7,0.01 to 0.03,
